Measurements as given in PubChem BioAssay AID248 (DTP/NCI, 2004).
Several values for one entry are separate records, joined by “and”; a condition that tells them apart may be missing. Identical values can stand only once. Inconclusive results and toxic doses are left out. Rule as the data show it: active = T/C of 150% or more; inactive = T/C below 125%.

System: L1210 leukemia ip in BDF1 mice, survival T/C
Assay: NCI In Vivo Anticancer Drug Screen. Data for tumor model L1210 Leukemia (intraperitoneal) in B6D2F1 (BDF1) mice
Details: endpoint: mean survival time, schedule: Q01DX009 (ip), vehicle: Klucel (hydroxypropylcellulose) (HPC), higher = longer survival
Method in brief: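 Read-out is survival time, reported as the treated-group measurement over the vehicle-control measurement.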

Measured: T/C

NCC(=O)NC1(C(=O)O)C2CC3CC(C2)CC1C3 (stereo not given)
inactive: dose: 25.0 mg/kg/injection 96 % of control | dose: 50.0 mg/kg/injection 94 % of control | dose: 100.0 mg/kg/injection 94 % of control and 96 % of control | dose: 200.0 mg/kg/injection 103 % of control | dose: 400.0 mg/kg/injection 103 % of control
